# In US20230000869A1, “NOVEL ALK2 INHIBITORS AND METHODS FOR INHIBITING BMP SIGNALING” (The Brigham and Women's Hospital, Inc., priority 2017, published 2023):
# What was measured:
# Assay type in all cases: biochemical
# ALK5 = target: T1, ALK5 (Homo sapiens, UniProt P36897); experiment: TR-FRET enzymatic assay, ALK5 kinase, 1536-well; settings: for IC50: 10 nM ALK, Ulight topo II substrate 50 nM, ATP 10 uM (Table 1); for ALK5 Span: span of the concentration-response curve
# T1 construct: purchased Life technology (Fredrick, Md.) and/or CARNA BIOSCIENCES Inc. (Kobe, Japan)
# T1 sequence (P36897 34-503): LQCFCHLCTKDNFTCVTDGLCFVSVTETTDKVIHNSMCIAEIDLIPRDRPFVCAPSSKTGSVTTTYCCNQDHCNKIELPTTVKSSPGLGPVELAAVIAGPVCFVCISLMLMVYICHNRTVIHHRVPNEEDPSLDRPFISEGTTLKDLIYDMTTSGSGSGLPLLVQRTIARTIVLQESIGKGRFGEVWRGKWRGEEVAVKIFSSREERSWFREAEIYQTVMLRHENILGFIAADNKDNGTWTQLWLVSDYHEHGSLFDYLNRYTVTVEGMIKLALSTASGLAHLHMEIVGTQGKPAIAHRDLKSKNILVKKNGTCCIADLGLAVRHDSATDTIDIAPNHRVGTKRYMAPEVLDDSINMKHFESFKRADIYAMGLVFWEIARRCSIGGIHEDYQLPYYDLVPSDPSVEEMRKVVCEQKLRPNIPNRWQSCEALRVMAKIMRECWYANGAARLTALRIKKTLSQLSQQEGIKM
# Description: (§1) We have developed six ALK kinase enzyme assays for determination of compound activities on ALK1, ALK2, ALK3, ALK4, ALK5 and ALK6. For the assay development, we had tested a number of substrates and assay conditions that led to the final optimized assay protocols with good assay windows with signal to basal (S/B) ratios above 20 fold for all six ALK assays (FIG. 1). In our knowledge, these ALK kinase assays have not been reported elsewhere.
# (§2) ALK1 and ALK2-ALK6 were obtained from Life technology (Fredrick, Md.) and CARNA BIOSCIENCES Inc. (Kobe, Japan). Ulight-DNA Topoisomerase 2 alpha (Thr-1342) peptide and Europium anti-phospho-DNA Topoisomerase 2 alpha (Thr-1342) antibody was from Perkin Elmer Inc. The kinase buffer was composed of 50 mM HEPES pH7.0, 10 mM MgCl2, 3 mM MnCl2, 0.005% Tween-20 and 2 mM DTT. The compound plates and the white solid MB assay plates were purchased from Greiner Bio-one (Monroe, N.C.).
# (§3) The binding of Eu-anti-phospho-peptide antibody to the phosphorylated Ulight peptide substrate bring both Eu donor and Ulight acceptor dye into close proximity. Upon excitation at 320-340 nm, the emission energy from Eu donor is transferred to Ulight acceptor dye that will generate light at 665 nm. The intensity light emission is proportional to the level of the peptide phosphorylation by ALKs. The assay was optimized and performed in 1536 plate (Table 1). Briefly, the ALKs enzymatic assay was initiated by dispense 2.5 ul enzyme with a final concentration at 10 nM prepared in 1× kinase reaction buffer. The assay plate was then added with compounds with the Pintool station (23 nl/well compound dilutions in DMSO solution) that was followed by incubation at room temperature for 10 minutes. Then 2.5 ul/well substrate was added in which 50 nM peptide substrate mixed with 10 uM, 100 uM or 1 mM ATP (final concentration). The assay plate was incubated at room temperature for 60 minutes and the kinase reaction was stopped by addition of 5 ul/well of 4 nM Eu-anti-phospho-peptide antibody with 12 mM EDTA prepared in 1× detection buffer. The assay plate was measured in an EnVision plate reader (Perkin Elmer) in the TR-FRET detection mode (excitation at 340 nm and emission at 665 nm).
# ALK1 = target: T2, ALK1 (Homo sapiens, UniProt P37023); experiment: TR-FRET enzymatic assay, ALK1 kinase, 1536-well; settings: for IC50 / ALK1 Span: TR-FRET; for IC50: 10 nM ALK, Ulight topo II substrate 50 nM, ATP 10 uM (Table 1); for ALK1 Span: span of the concentration-response curve
# T2 construct: purchased Life technology (Fredrick, Md.) and/or CARNA BIOSCIENCES Inc. (Kobe, Japan)
# T2 sequence (P37023 22-503): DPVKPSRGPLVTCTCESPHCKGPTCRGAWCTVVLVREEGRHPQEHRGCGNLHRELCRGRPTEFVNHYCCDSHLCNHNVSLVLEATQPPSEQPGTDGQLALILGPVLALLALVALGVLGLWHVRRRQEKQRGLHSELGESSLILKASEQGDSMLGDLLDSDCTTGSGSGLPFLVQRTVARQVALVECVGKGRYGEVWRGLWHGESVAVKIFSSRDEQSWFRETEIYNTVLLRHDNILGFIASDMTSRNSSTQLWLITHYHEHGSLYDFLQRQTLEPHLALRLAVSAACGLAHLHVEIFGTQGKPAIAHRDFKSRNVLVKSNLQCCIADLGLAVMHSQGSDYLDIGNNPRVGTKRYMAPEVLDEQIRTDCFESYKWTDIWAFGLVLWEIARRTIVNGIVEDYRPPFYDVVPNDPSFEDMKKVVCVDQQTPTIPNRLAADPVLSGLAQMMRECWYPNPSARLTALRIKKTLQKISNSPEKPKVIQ
# Description: as §1, §2, §3
# ALK3 = target: T3, ALK3 (Homo sapiens, UniProt P36894); experiment: TR-FRET enzymatic assay, ALK3 kinase, 1536-well; settings: for IC50: 10 nM ALK, Ulight topo II substrate 50 nM, ATP 10 uM (Table 1); for ALK3 Span: span of the concentration-response curve
# T3 construct: purchased Life technology (Fredrick, Md.) and/or CARNA BIOSCIENCES Inc. (Kobe, Japan)
# T3 sequence (P36894 24-532): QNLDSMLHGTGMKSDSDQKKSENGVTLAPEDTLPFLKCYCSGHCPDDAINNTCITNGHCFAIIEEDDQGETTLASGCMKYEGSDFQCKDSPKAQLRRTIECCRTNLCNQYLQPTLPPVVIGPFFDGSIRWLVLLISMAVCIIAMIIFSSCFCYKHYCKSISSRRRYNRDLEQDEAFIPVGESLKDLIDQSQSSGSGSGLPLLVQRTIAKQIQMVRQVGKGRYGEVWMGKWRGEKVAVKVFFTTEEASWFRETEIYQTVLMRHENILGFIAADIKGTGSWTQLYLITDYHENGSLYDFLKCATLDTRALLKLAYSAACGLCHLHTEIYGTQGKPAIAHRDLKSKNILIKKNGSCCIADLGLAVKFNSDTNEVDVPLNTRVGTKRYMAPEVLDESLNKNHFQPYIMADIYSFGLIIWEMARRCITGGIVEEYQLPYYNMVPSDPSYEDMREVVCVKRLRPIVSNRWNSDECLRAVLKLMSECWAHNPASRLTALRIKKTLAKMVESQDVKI
# Description: as §1, §2, §3
# ALK4 = target: T4, ALK4 (Homo sapiens, UniProt P36896); experiment: TR-FRET enzymatic assay, ALK4 kinase, 1536-well; settings: for IC50: 10 nM ALK, Ulight topo II substrate 50 nM, ATP 10 uM (Table 1); for ALK4 Span: span of the concentration-response curve
# T4 construct: purchased Life technology (Fredrick, Md.) and/or CARNA BIOSCIENCES Inc. (Kobe, Japan)
# T4 sequence (P36896 24-505): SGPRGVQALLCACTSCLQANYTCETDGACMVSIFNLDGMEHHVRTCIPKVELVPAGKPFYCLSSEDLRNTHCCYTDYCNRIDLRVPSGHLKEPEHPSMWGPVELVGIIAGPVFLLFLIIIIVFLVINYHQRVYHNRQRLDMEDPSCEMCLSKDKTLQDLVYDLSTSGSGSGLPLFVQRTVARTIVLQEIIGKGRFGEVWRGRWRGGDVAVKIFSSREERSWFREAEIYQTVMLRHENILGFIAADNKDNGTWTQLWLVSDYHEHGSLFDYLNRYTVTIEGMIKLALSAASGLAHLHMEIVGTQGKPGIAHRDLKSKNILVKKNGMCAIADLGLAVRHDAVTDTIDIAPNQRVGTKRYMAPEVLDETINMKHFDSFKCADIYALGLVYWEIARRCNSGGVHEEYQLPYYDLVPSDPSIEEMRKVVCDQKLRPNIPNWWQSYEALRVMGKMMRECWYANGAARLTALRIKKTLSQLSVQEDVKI
# Description: as §1, §2, §3
SMILES,IC50 (ALK5) [nM],ALK5 Span (ALK5),IC50 (ALK1) [nM],ALK1 Span (ALK1),IC50 (ALK3) [nM],ALK3 Span (ALK3),IC50 (ALK4) [nM],ALK4 Span (ALK4),"activity in ALK1 in the presence of 10, 100, or 1,000 uM ATP (ALK1; FIG. 3, ATP 10 uM versus 100 uM or 1 mM)"
Cc1cc(-c2cnn3cc(N4CCC(N5CCN(C)CC5)CC4)cnc23)c2ccccc2n1 [Compound 8],2470,100.3,325,89.1,1240,97.0,994,96.6,
Cc1cc(-c2cnn3cc(N4CCC(N5CCOCC5)CC4)cnc23)c2ccccc2n1 [Compound 11],2080,102.1,269,91.4,1280,~115.7,1030,100.0,
"COc1cc2c(-c3cnn4cc(N5CCC(N6CCN(C)CC6)CC5)cnc34)ccnc2cc1F [Compound 15, 7-fluoro-6-methoxy-4-(6-(4-(4-methylpiperazin-1-yl)piperidin-1-yl)pyrazolo[1,5-a]pyrimidin-3-yl)quinoline]",8920,96,1520,92.3,2820,96.93,4210,101,
Cc1cc(-c2cnn3cc(N4CCC(N5CCNCC5)CC4)cnc23)c2ccccc2n1 [Compound 34],4680,105.678,671,93.42,1870,104.4,2030,101.1,
c1ccc2c(-c3cnn4cc(-c5ccc(N6CCNCC6)cc5)cnc34)ccnc2c1 [TRND00262637-13],,,,,,,,,activity reduced in the higher ATP concentrations
